US10654805B2, “Pyridinethiones, pharmaceutical compositions thereof, and their therapeutic use for treating a proliferative, inflammatory, neurodegenerative, or immune-mediated disease” (BioTheryX, Inc., priority 2016, dated 2020)

Columns and labels:
[1] = system: myelin basic protein (MBP); test: Induction of myelin basic protein (MBP) production in MO3-13 cells, slot blot with anti-MBP antibody; assay type: cell-based, human; details: with and without cuprizone; for relative MBP binding compared with vehicle control: MO3-13 cells, p<0.0001, FIG. 2; for relative MBP binding (anti-MBP antibody): MO3-13 whole cell extracts
Protocol: Whole cell extracts of MO3-13 cells were prepared using 6 M urea. An aliquot of 100 μL was removed and diluted with an equal volume of 6 M urea. A 5 μL aliquot was removed and quantitated for protein levels. Total protein concentrations were determined using the BioRad protein assay method at 595 nm. Total protein in the whole cell extracts was determined and a ratio of recovered protein was used to calculate the relative amount of MBP in the whole cell extracts. Whole cell extracts were diluted to 0.1 mg/mL. Extracts containing 2.5 μg of protein were applied onto nitrocellulose membrane in a slot blotter using a vacuum method to draw the sample onto the membrane. The non-protein sites on the membrane were blocked with 2% ECL blocking reagent diluted in PBS-Tween20. Primary anti-Bovine MBP was diluted in the same block solution at 300×. The primary antibody was incubated one hour at room temperature with gentle shaking. The blot was developed using enhanced ECL (GE Healthcare) method. Image of bound antibody were captured using Image Lab software driving a Bio-Rad ChemiDoc XRS+ image capture system. The data was graphically represented using Graph Pad Prism software.

C57/B6 mice = test: Cuprizone model of demyelination in mice: brain myelination scores; assay type: in vivo
Protocol: (§1) The ability of compound A1 to effect the demyelination process was evaluated in a cuprizone model of demyelination in mice. Thirty-six male C57/B6 mice aged 7-8 weeks were acclimated for 1 week prior to study commencement and housed 2 mice per cage. Mice in Group 1 received control chow without cuprizone, and all other mice were fed mouse diet containing 0.2% cuprizone for 5 weeks. Food was changed every other day, body and food weights were obtained daily. All cuprizone and control food was stored in vacuum containers and stored frozen until use.
(§2) Dosing solutions were prepared fresh on each day of dosing. Compound A1 was first dissolved in DMSO in a volume of 10% of the final volume, followed by addition of solutol HS-15 in a volume of 10% of the final volume and a solution of 10% hydroxypropyl-β-cyclodextrin in a volume of 80% of the final volume. Unless otherwise noted, all test articles were administered in a volume of 0.1 mL/10 g body weight.
(§3) During this process, mice received either vehicle or compound A1 at 50 mg/kg or 100 mg/kg via intraperitoneal injection daily. At the end of 5 weeks, the mice were sacrificed and the brain histology of each group compared to controls that had not received cuprizone. Statistical differences between treatment groups were determined using Mann-Whitney Rank Sum or ANOVA tests with a critical value of 0.05.
(§4) Evaluation of the myelin content of the brains was focused on three areas—the rostral corpus callosum, the dorsal corpus callosum and the cerebellum. The extent of demyelination in both sagittal sections was determined by a board certified veterinary pathologist blinded to animal treatment. Percent demyelination was scored as follows: demyelination ranging from 0 to 10% of the total anatomical structure was scored as 0; demyelination ranging from 11 to 30% of the total anatomical structure was scored as 1; demyelination ranging from 31 to 60% of the total anatomical structure was scored as 2; demyelination ranging from 61 to 90% of the total anatomical structure was scored as 3; and demyelination ranging from 91 to 100% of the total anatomical structure was scored as 4. The extent of MBP staining intensity was based on a 1-4 scale, where 4 was the highest level of staining seen (100%).

[2] = system: myelin basic protein (MBP); test: Cuprizone model of demyelination in mice: MBP immunohistochemistry staining score; assay type: in vivo
Protocol: as §1, §2, §3, §4
In addition, immunohistochemistry was performed for myelin basic protein (MBP), and slides were analyzed for the intensity of MBP staining in the same regions. The mean rostral corpus callosum MBP staining score for the control groups was 4. In the vehicle treated group receiving cuprizone chow, the mean rostral corpus callosum m MBP staining score was 2.9. In the group receiving cuprizone chow and compound A1 at 50 mg/kg, the mean rostral corpus callosum MBP staining score was 3.2. Additional analysis of the rostral corpus callosum MBP staining was conducted using an ANOVA test.

[3] = Cuprizone model in mice: body weight, deaths and toxicity; assay type: in vivo
Protocol: as §1, §2, §3
All animals were weighed every day in order to assess possible differences in animal weight among treatment groups as an indication of possible toxicity resulting from the treatments. Animals with a weight loss of more than 20% of their starting weight were euthanized. Mice with weight loss of more than 15% of their starting weight were not treated again until weight loss recovered to less than 5% of their starting weight. […] One animal in the cuprizone/vehicle group was also euthanized on Day 20 due to poor condition and weight loss. All remaining mice survived until the end of the study.

| Compound | relative MBP binding compared with vehicle control [1] | relative MBP binding (anti-MBP antibody) [1] | mean cerebellar myelination score (C57/B6 mice; 50 mg/kg IP QD, cuprizone chow 5 weeks, not significant) | mean rostral corpus callosum myelination score (C57/B6 mice; 50 mg/kg IP QD, cuprizone chow 5 weeks, not significant vs vehicle) | mean caudal corpus callosum myelination score (C57/B6 mice; 50 mg/kg IP QD, cuprizone chow 5 weeks, p=0.0012 vs vehicle) | demyelination in the rostral corpus callosum vs vehicle treated group (C57/B6 mice; cuprizone mice) | demyelination in the dorsal corpus callosum vs mice receiving vehicle (C57/B6 mice; cuprizone mice, p=0.0012) | mean cerebellum MBP staining score ([2]; 50 mg/kg IP QD, cuprizone chow 5 weeks, 1-4 scale, 4 highest, not significant) | mean rostral corpus callosum MBP staining score ([2]; 50 mg/kg IP QD, cuprizone chow 5 weeks, 1-4 scale, 4 highest, not significant vs vehicle) | mean caudal corpus callosum MBP staining score ([2]; 50 mg/kg IP QD, cuprizone chow 5 weeks, 1-4 scale, 4 highest, p=0.0064 vs vehicle) | MBP expression in the rostral corpus callosum vs vehicle treated group ([2]; cuprizone mice) | MBP expression in the dorsal corpus callosum vs mice receiving vehicle ([2]; cuprizone mice, p=0.0064) | average loss of starting weight during the study ([3]; 50 mg/kg IP QD, cuprizone food, 5 weeks) | toxicity ([3]; 50 mg/kg daily, cuprizone treatment) | mice that suddenly started to lose weight and die ([3]; 100 mg/kg IP QD, cuprizone food, between Days 20 and 24, despite discontinuation of dosing) |
| --- | --- | --- | --- | --- | --- | --- | --- | --- | --- | --- | --- | --- | --- | --- | --- |
| Cc1cc(C(F)(F)F)cc(=S)[nH]1 [A3, 6-methyl-4-trifluoromethylpyridine-2(1H)-thione] | significantly increased above vehicle control | elevated relative MBP binding | – | – | – | – | – | – | – | – | – | – | – | – | – |
| Cc1cc(C2CCCCC2)[nH]c(=S)c1 [compound A1, 6-cyclohexyl-4-methylpyridine-2(1H)-thione] | significantly increased above vehicle control | elevated relative MBP binding | 3.2 | 2.1 | 2.1 | no statistically significant differences | significantly less demyelination | 3.8 | 3.2 | 3.1 | no statistically significant differences | significantly less demyelination | 10.6% | no evidence of toxicity beyond that seen in the vehicle group | nine often mice |
| Cc1cc(CC(C)CC(C)(C)C)[nH]c(=S)c1 (stereo not drawn) [compound A2, 4-methyl-6-(2,4,4-trimethylpentyl)pyridine-2(1H)-thione] | – | elevated relative MBP binding | – | – | – | – | – | – | – | – | – | – | – | – | – |
